Assay results published in patent publication US5998488A, “Ophthalmic composition” (Lion Corporation, priority 1994, dated 1999).
Read-outs that look alike come from different tables or passages of the source.

Key:
[1] = tested on: Candida albicans (Candida); experiment: Antimicrobial test (preservative effectiveness test, USP), Candida; format: cell-based; settings: benzalkonium chloride 0.01%
Method: (§1) The solutions of Experiment 1 were subject to an antimicrobial test.
(§2) Using bacteria Escherichia coli (E. coli), Pseudomonas aeruginosa (P. aeru), and Stapyrococcus aureus (S. aureus) and fungi Aspergillus nigar (A. nigar) and Candida albicans (Candida) as infectious microorganisms, a preservative effectiveness test was carried out according to the Pharmacopoeia of the United States.
(§3) ++: microorganisms died within 5 days
(§4) +: microorganisms died in 6-10 days
(§5) -:microorganisms died in 11-15 days or over 15 days

[2] = tested on: E. coli, P. aeru, S. aureus, A. nigar, Candida; experiment: Antimicrobial test (preservative effectiveness test, USP), microorganism type not specified; format: cell-based; settings: α-cyclodextrin 0.03% or more
Method: as §2, §3, §4, §5
Solutions were prepared in accordance with the formulation shown in Experiment 1 in a conventional manner as used in the preparation of eye drops while the amount of disodium ethylenediaminetetraacetate (EDTA-2Na) blended was in the range of 0.002 to 0.3%. The solutions were subject to the antimicrobial test of Experiment 3 and evaluated for antimicrobial activity according to the same criterion as above.
Solutions of the following formulation were prepared in a conventional manner as used in the preparation of eye drops.
The solutions were subject to the antimicrobial test of Experiment 3 and evaluated for antimicrobial activity according to the same criterion as above.
Solutions of the formulation shown in Table 7 were prepared to a total amount of 1,000 g in a conventional manner as used in the preparation of eye drops. […] The ophthalmic solutions were subject to the same tests as in Experiments 1 and 3. In the test of Experiment 3, the ophthalmic solutions were evaluated for antimicrobial activity according to the same criterion as before.

[3] = tested on: Escherichia coli (E. coli); experiment: Antimicrobial test (preservative effectiveness test, USP), E. coli; format: cell-based; settings: benzalkonium chloride 0.01%
Method: as §1, §2, §3, §4, §5

[4] = Benzalkonium chloride adsorption test (soft contact lens Menicon Soft 72); format: physicochemical; settings: benzalkonium chloride 0.01%, 25° C., 24 hours
Method: (§6) A test was conducted to examine the inhibition of benzalkonium chloride adsorption to soft contact lenses. Solutions of the following formulation were prepared in a conventional manner as used in the preparation of eye drops.
(§7) The percent inhibition of benzalkonium chloride adsorption to commercially available soft contact lenses was determined by the following test.
(§8) Benzalkonium chloride adsorption test A 30-ml vial was charged with 10 ml of the solution and a soft contact lens was immersed therein. In a constant temperature tank at 25° C., the vial was shaken for 24 hours. After the contact lens was removed from the vial, the concentration of benzalkonium chloride in the solution was quantitatively determined by high performance liquid chromatography. A percent inhibition of adsorption was calculated according to the following formula.
(§9) As a control, the above procedure was repeated except that no contact lens was immersed.
(§10) Inhibition of adsorption (%)=(concentration of benzalkonium chloride in sample solution)/(concentration of benzalkonium chloride in control solution)×100
(§11) Note that Seequence, Nichicon Soft and Menicon Soft are trademarks of soft contact lenses commercially available from Bausch & Lomb, Nihon Contact K.K., and Menicon K.K., respectively.

[5] = tested on: Stapyrococcus aureus (S. aureus); experiment: Antimicrobial test (preservative effectiveness test, USP), S. aureus; format: cell-based; settings: benzalkonium chloride 0.01%
Method: as §1, §2, §3, §4, §5

[6] = Benzalkonium chloride adsorption test (soft contact lenses, lens not given); format: physicochemical; settings: for Inhibition of adsorption, cyclodextrin in place of α-cyclodextrin (in words): α-cyclodextrin replaced by the other cyclodextrin
Method: as §7, §8, §9, §10
Solutions of the formulation shown in Table 7 were prepared to a total amount of 1,000 g in a conventional manner as used in the preparation of eye drops. Ophthalmic solutions of Examples 2 to 13 were obtained. The ophthalmic solutions were subject to the same tests as in Experiments 1 and 3. In the test of Experiment 3, the ophthalmic solutions were evaluated for antimicrobial activity according to the same criterion as before.

[7] = Benzalkonium chloride adsorption test (soft contact lens Nichicon Soft μ); format: physicochemical; settings: benzalkonium chloride 0.01%, 25° C., 24 hours
Method: as §6, §7, §8, §9, §10, §11

[8] = format: physicochemical; settings: 6 months at 50° C.
Method: […] More specifically, solutions were prepared in accordance with the formulation shown in Experiment 1 while the amount of α-cyclodextrin mixed was in the range of 0.03 to 2%.

[9] = tested on: Pseudomonas aeruginosa (P. aeru); experiment: Antimicrobial test (preservative effectiveness test, USP), P. aeru; format: cell-based; settings: benzalkonium chloride 0.01%
Method: as §1, §2, §3, §4, §5

[10] = Benzalkonium chloride adsorption test (soft contact lens Seequence); format: physicochemical; settings: benzalkonium chloride 0.01%, 25° C., 24 hours
Method: as §6, §7, §8, §9, §10, §11

[11] = tested on: Aspergillus nigar (A. nigar); experiment: Antimicrobial test (preservative effectiveness test, USP), A. nigar; format: cell-based; settings: benzalkonium chloride 0.01%
Method: as §1, §2, §3, §4, §5

Question: What does the source list for OC[C@H]1O[C@@H]2O[C@H]3[C@H](O)[C@@H](O)[C@@H](O[C@H]4[C@H](O)[C@@H](O)[C@@H](O[C@H]5[C@H](O)[C@@H](O)[C@@H](O[C@H]6[C@H](O)[C@@H](O)[C@@H](O[C@H]7[C@H](O)[C@@H](O)[C@@H](O[C@H]1[C@H](O)[C@H]2O)O[C@@H]7CO)O[C@@H]6CO)O[C@@H]5CO)O[C@@H]4CO)O[C@@H]3CO [α-cyclodextrin]?
Answer: Antimicrobial activity ([1]; α-cyclodextrin 0.01%): + (microorganisms died in 6-10 days); Antimicrobial activity ([1]; α-cyclodextrin 0.02%): + (microorganisms died in 6-10 days); Antimicrobial activity ([1]; α-cyclodextrin 0.03%): - (microorganisms died in 11-15 days or over 15 days); Antimicrobial activity ([1]; α-cyclodextrin 0.05%): - (microorganisms died in 11-15 days or over 15 days); Antimicrobial activity ([1]; α-cyclodextrin 0.1%): - (microorganisms died in 11-15 days or over 15 days); Antimicrobial activity ([1]; α-cyclodextrin 0.2%): - (microorganisms died in 11-15 days or over 15 days); Antimicrobial activity ([1]; α-cyclodextrin 0.3%): - (microorganisms died in 11-15 days or over 15 days); Antimicrobial activity of solution containing benzalkonium chloride (in words) [2]: significantly reduced in antimicrobial activity; Antimicrobial activity ([3]; α-cyclodextrin 0.01%): + (microorganisms died in 6-10 days); Antimicrobial activity ([3]; α-cyclodextrin 0.02%): + (microorganisms died in 6-10 days); Antimicrobial activity ([3]; α-cyclodextrin 0.03%): - (microorganisms died in 11-15 days or over 15 days); Antimicrobial activity ([3]; α-cyclodextrin 0.05%): - (microorganisms died in 11-15 days or over 15 days); Antimicrobial activity ([3]; α-cyclodextrin 0.1%): - (microorganisms died in 11-15 days or over 15 days); Antimicrobial activity ([3]; α-cyclodextrin 0.2%): - (microorganisms died in 11-15 days or over 15 days); Antimicrobial activity ([3]; α-cyclodextrin 0.3%): - (microorganisms died in 11-15 days or over 15 days); Inhibition of adsorption ([4]; α-cyclodextrin 0.01%): 88%; Inhibition of adsorption ([4]; α-cyclodextrin 0.02%): 92%; Inhibition of adsorption ([4]; α-cyclodextrin 0.03%): 100%; Inhibition of adsorption ([4]; α-cyclodextrin 0.05%): 100%; Inhibition of adsorption ([4]; α-cyclodextrin 0.1%): 100%; Inhibition of adsorption ([4]; α-cyclodextrin 0.2%): 100%; Inhibition of adsorption ([4]; α-cyclodextrin 0.3%): 100%; Antimicrobial activity ([5]; α-cyclodextrin 0.01%): + (microorganisms died in 6-10 days); Antimicrobial activity ([5]; α-cyclodextrin 0.02%): + (microorganisms died in 6-10 days); Antimicrobial activity ([5]; α-cyclodextrin 0.03%): - (microorganisms died in 11-15 days or over 15 days); Antimicrobial activity ([5]; α-cyclodextrin 0.05%): - (microorganisms died in 11-15 days or over 15 days); Antimicrobial activity ([5]; α-cyclodextrin 0.1%): - (microorganisms died in 11-15 days or over 15 days); Antimicrobial activity ([5]; α-cyclodextrin 0.2%): - (microorganisms died in 11-15 days or over 15 days); Antimicrobial activity ([5]; α-cyclodextrin 0.3%): - (microorganisms died in 11-15 days or over 15 days); Inhibition of adsorption of benzalkonium chloride to soft contact lenses (in words) ([6]; concentration of at least 0.03%): The inhibition effect is remarkable; Inhibition of adsorption ([7]; α-cyclodextrin 0.01%): 87%; Inhibition of adsorption ([7]; α-cyclodextrin 0.02%): 93%; Inhibition of adsorption ([7]; α-cyclodextrin 0.03%): 100%; Inhibition of adsorption ([7]; α-cyclodextrin 0.05%): 100%; Inhibition of adsorption ([7]; α-cyclodextrin 0.1%): 100%; Inhibition of adsorption ([7]; α-cyclodextrin 0.2%): 100%; Inhibition of adsorption ([7]; α-cyclodextrin 0.3%): 100%; Stability ([8]; α-cyclodextrin 0.03%): .largecircle.; Stability ([8]; α-cyclodextrin 0.5%): .largecircle.; Stability ([8]; α-cyclodextrin 1%): Δ; Antimicrobial activity ([9]; α-cyclodextrin 0.01%): + (microorganisms died in 6-10 days); Antimicrobial activity ([9]; α-cyclodextrin 0.02%): + (microorganisms died in 6-10 days); Antimicrobial activity ([9]; α-cyclodextrin 0.03%): - (microorganisms died in 11-15 days or over 15 days); Antimicrobial activity ([9]; α-cyclodextrin 0.05%): - (microorganisms died in 11-15 days or over 15 days); Antimicrobial activity ([9]; α-cyclodextrin 0.1%): - (microorganisms died in 11-15 days or over 15 days); Antimicrobial activity ([9]; α-cyclodextrin 0.2%): - (microorganisms died in 11-15 days or over 15 days); Antimicrobial activity ([9]; α-cyclodextrin 0.3%): - (microorganisms died in 11-15 days or over 15 days); Inhibition of adsorption ([10]; α-cyclodextrin 0.01%): 88%; Inhibition of adsorption ([10]; α-cyclodextrin 0.02%): 92%; Inhibition of adsorption ([10]; α-cyclodextrin 0.03%): 100%; Inhibition of adsorption ([10]; α-cyclodextrin 0.05%): 100%; Inhibition of adsorption ([10]; α-cyclodextrin 0.1%): 100%; Inhibition of adsorption ([10]; α-cyclodextrin 0.2%): 100%; Inhibition of adsorption ([10]; α-cyclodextrin 0.3%): 100%; Antimicrobial activity ([11]; α-cyclodextrin 0.01%): + (microorganisms died in 6-10 days); Antimicrobial activity ([11]; α-cyclodextrin 0.02%): + (microorganisms died in 6-10 days); Antimicrobial activity ([11]; α-cyclodextrin 0.03%): - (microorganisms died in 11-15 days or over 15 days); Antimicrobial activity ([11]; α-cyclodextrin 0.05%): - (microorganisms died in 11-15 days or over 15 days); Antimicrobial activity ([11]; α-cyclodextrin 0.1%): - (microorganisms died in 11-15 days or over 15 days); Antimicrobial activity ([11]; α-cyclodextrin 0.2%): - (microorganisms died in 11-15 days or over 15 days); Antimicrobial activity ([11]; α-cyclodextrin 0.3%): - (microorganisms died in 11-15 days or over 15 days)

Question: With OC[C@H]1O[C@@H]2O[C@H]3[C@H](O)[C@@H](O)[C@@H](O[C@H]4[C@H](O)[C@@H](O)[C@@H](O[C@H]5[C@H](O)[C@@H](O)[C@@H](O[C@H]6[C@H](O)[C@@H](O)[C@@H](O[C@H]7[C@H](O)[C@@H](O)[C@@H](O[C@H]8[C@H](O)[C@@H](O)[C@@H](O[C@H]9[C@H](O)[C@@H](O)[C@@H](O[C@H]%10[C@H](O)[C@@H](O)[C@@H](O[C@H]1[C@H](O)[C@H]2O)O[C@@H]%10CO)O[C@@H]9CO)O[C@@H]8CO)O[C@@H]7CO)O[C@@H]6CO)O[C@@H]5CO)O[C@@H]4CO)O[C@@H]3CO [δ-cyclodextrin] as the compound, how does the “Inhibition of adsorption, cyclodextrin in place of α-cyclodextrin (in words)” value (from here on “Inhibition of adsorption, cyclodextrin”) [6] read?
Answer: Approximately equivalent results

Question: Which “Inhibition of adsorption, cyclodextrin” value [6] does the source give for OC[C@H]1O[C@@H]2O[C@H]3[C@H](O)[C@@H](O)[C@@H](O[C@H]4[C@H](O)[C@@H](O)[C@@H](O[C@H]5[C@H](O)[C@@H](O)[C@@H](O[C@H]6[C@H](O)[C@@H](O)[C@@H](O[C@H]7[C@H](O)[C@@H](O)[C@@H](O[C@H]8[C@H](O)[C@@H](O)[C@@H](O[C@H]1[C@H](O)[C@H]2O)O[C@@H]8CO)O[C@@H]7CO)O[C@@H]6CO)O[C@@H]5CO)O[C@@H]4CO)O[C@@H]3CO [β-cyclodextrin] here?
Answer: Approximately equivalent results

Question: Which “Inhibition of adsorption, cyclodextrin” value [6] does the source give for hydroxyethylated cyclodextrin here?
Answer: Approximately equivalent results
